{"source": "patent US7674457B2", "about": "“Methods for enhancing neuroprotection via administration of stem cells and blood brain barrier permeabilizers” (University of South Florida, priority 2003, dated 2010)", "key": {"trophic factors": {"test_system": "trophic factors", "assay": "Trophic factors in peripheral organs (kidneys, lungs, spleens) of stroke animals", "type": "in vivo, Sprague-Dawley rats", "conditions": "intravenous, lungs, and spleens"}, "GDNF, NGF, and BDNF": {"test_system": "GDNF, NGF, and BDNF", "assay": "Blood levels of trophic factors by ELISA at day 3 after stroke", "type": "in vivo, Sprague-Dawley rats", "conditions": "intravenous", "method": "Finally, the blood levels of GDNF, NGF, and BDNF were measured to further determine the source of trophic factors. Additional stroke animals (n=6 per group) were subjected to the same surgical/drug regimen as above and were euthanized at day 3 after stroke."}}}
{"smiles": "OC[C@@H](O)[C@@H](O)[C@H](O)[C@H](O)CO", "note": "[mannitol]", "values": [{"measurement": "elevation of trophic factors in peripheral organs, above controls", "setting": "trophic factors", "result": 8, "unit": "%"}, {"measurement": "trophic factors in circulating blood", "setting": "GDNF, NGF, and BDNF", "result": "no detectable levels"}]}
